Test results taken from patent publication US20250197905A1, “LEGIONAMINIC ACID GLYCOSYLTRANSFERASES FOR CHEMOENZYMATIC SYNTHESIS OF GLYCANS AND GLYCOCONJUGATES” (The Regents of the University of California, priority 2022, published 2025).
Values joined by “and” are separate entries in the source; they are usually repeats but may differ in a detail not shown here. Identical values can stand only once.

Tests used:
[1] = tested on: His6-AbGtr18; assay: Effects of metal ions, EDTA, and DTT on the activity of His6-AbGtr18; type: biochemical, A. baumannii K8; conditions: donor CMP-Leg5,7Ac2; for Effect on the activity of AbGtr18: 10 mM additive, 40° C., 30 minutes, pH 6.0
Procedure: Effects of metal ions, EDTA, and a reducing reagent DTT on the activity of His6-AbGtr18. Enzymatic assays were carried out in duplicate at 40° C. for 30 minutes in a total volume of 10 μL in citric acid-sodium citrate buffer ([…], pH 6.0) containing 1 mM CMP-Leg5,7Ac2, 1 mM GalNAcα2AA, His6-AbGtr18 (0.64 μM), and 10 mM of CaCl2), CuSO4, MgCl2, MnCl2, NiSO4, ZnCl2, ethylenediaminetetraacetic acid (EDTA), or dithiothreitol (DTT). Reactions without metal ions, EDTA, or DTT were used as controls. The reactions were quenched by adding 40 μL methanol. Samples were centrifuged, and then analyzed by UHPLC as described above for pH profile studies.

[2] = tested on: LpCLS or NmCSS, with or without PmAldolase; type: biochemical
[3] = tested on: MBP-AbGtr18-His6; type: biochemical, A. baumannii K8
[4] = tested on: His6-AbGtr18; type: biochemical, A. baumannii K8

Compound	CMP-Sia Yield (%) [2] [%]	Sialoside yield (%) 20 h [3]	Activity of His6-AbGtr18 towards acceptor (in words) [4]	Yield (%) 20 h [4]	also measured
O[C@H](CS)[C@H](O)CS (racemic) [DTT, dithiothreitol]					Effect on the activity of AbGtr18 [1]: no significant effect
CC(=O)N[C@@H]([C@H](O)[C@H](NC(C)=O)[C@@H](O)CC(=O)C(=O)O)[C@@H](C)O [CMP-Leg5,7Ac2, 5,7-diacetamido-3,5,7,9-tetradeoxy-D-glycero-D-galacto-non-2-ulosonic acid]	>99	72.6 ± 0.1% and 99.0 ± 0.6%			Sialoside yield (%) 0.5 h [3]: 53.5 ± 0.5% and 56.6 ± 1.6%; Suitability as donor substrate for MBP-AbGtr18-His6 (in words) [3]: used efficiently
[N-]=[N+]=NCC(O)C(N=[N+]=[N-])C1OC(OP(=O)(O)OCC2OC(n3ccc(N)nc3=O)C(O)C2O)(C(=O)O)CC(O)C1N=[N+]=[N-] (centres unmarked) [CMP-Neu5,7,9triN3]					Suitability as donor substrate for MBP-AbGtr18-His6 (in words) [3]: limited activity
[N-]=[N+]=N[C@@H]([C@@H]1OC(OP(=O)(O)OC[C@H]2O[C@@H](n3ccc(N)nc3=O)[C@H](O)[C@@H]2O)(C(=O)O)C[C@H](O)[C@H]1N=[N+]=[N-])[C@H](O)CO (some centres unmarked) [CMP-Neu5,7diN3]					Suitability as donor substrate for MBP-AbGtr18-His6 (in words) [3]: limited activity
CC(=O)NC1C(O)CC(OP(=O)(O)OCC2OC(n3ccc(N)nc3=O)C(O)C2O)(C(=O)O)OC1C(N=[N+]=[N-])C(O)CO (centres unmarked) [CMP-Neu5Ac7N3]					Suitability as donor substrate for MBP-AbGtr18-His6 (in words) [3]: suitable but less efficient donor substrates
CC(=O)N[C@H]1[C@H]([C@H](O)[C@H](O)CN=[N+]=[N-])OC(OP(=O)(O)OC[C@H]2O[C@@H](n3ccc(N)nc3=O)[C@H](O)[C@@H]2O)(C(=O)O)C[C@@H]1O (some centres unmarked) [CMP-Neu5Ac9N3]					Suitability as donor substrate for MBP-AbGtr18-His6 (in words) [3]: efficient
[N-]=[N+]=NCC(=O)N[C@H]1[C@H]([C@H](O)[C@H](O)CO)OC(OP(=O)(O)OC[C@H]2O[C@@H](n3ccc(N)nc3=O)[C@H](O)[C@@H]2O)(C(=O)O)C[C@@H]1O (some centres unmarked) [CMP-Neu5Az]					Suitability as donor substrate for MBP-AbGtr18-His6 (in words) [3]: efficient
Nc1ccn([C@@H]2O[C@H](COP(=O)(O)O[C@@]3(C(=O)O)C[C@H](O)[C@@H](NC(=O)CO)[C@H]([C@H](O)[C@H](O)CO)O3)[C@@H](O)[C@H]2O)c(=O)n1 [CMP-Neu5Gc]					Suitability as donor substrate for MBP-AbGtr18-His6 (in words) [3]: suitable but less efficient donor substrates
[N-]=[N+]=NC1C(O)CC(OP(=O)(O)OCC2OC(n3ccc(N)nc3=O)C(O)C2O)(C(=O)O)OC1C(O)C(O)CO (centres unmarked) [CMP-Neu5N3]					Suitability as donor substrate for MBP-AbGtr18-His6 (in words) [3]: poor donor substrates
[Ca+2].[Cl-].[Cl-] [Ca^2+, CaCl2]					Effect on the activity of AbGtr18 [1]: no significant effect
O=S(=O)([O-])[O-].[Cu+2] [Cu^2+, CuSO4]					Effect on the activity of AbGtr18 [1]: decreased the reaction yields
O=C(O)CN(CCN(CC(=O)O)CC(=O)O)CC(=O)O [EDTA, ethylenediaminetetraacetic acid]					Effect on the activity of AbGtr18 [1]: no effect
CC(=O)N[C@H]1[C@@H](OCCCNC(=O)OCc2ccccc2)O[C@H](CO)[C@H](O)[C@@H]1O [GalNAcαProNHCbz]			lower efficiency	82.5 ± 0.6%	Yield (%) 15 min [4]: 14.6 ± 1.1%
CC(=O)N[C@H]1[C@H](OCCCNC(=O)OCc2ccccc2)O[C@H](CO)[C@H](O)[C@@H]1O [GalNAcβProNHCbz]			much lower efficiencies	33.5 ± 0.8%	Yield (%) 15 min [4]: 1.7 ± 0.2%
O=[N+]([O-])c1ccc(O[C@H]2O[C@H](CO)[C@H](O)[C@H](O)[C@H]2O)cc1 [GalαpNP, 4-Nitrophenyl-α-D-galactopyranoside]			much lower efficiencies	16.7 ± 0.2%	
CC(=O)N[C@H]1[C@@H](OCCCNC(=O)OCc2ccccc2)O[C@H](CO)[C@H](O)[C@@H]1O[C@@H]1O[C@H](CO)[C@H](O)[C@H](O)[C@H]1O [Galβ1-3GalNAcαProNHCbz]			trace activity	Trace^[e]	
CC(=O)N[C@H]1[C@H](OCCCNC(=O)OCc2ccccc2)O[C@H](CO)[C@H](O)[C@@H]1O[C@@H]1O[C@H](CO)[C@H](O)[C@H](O)[C@H]1O [Galβ1-3GalNAcβProNHCbz]			trace activity	Trace	
CC(=O)N[C@H]1[C@H](OCCCNC(=O)OCc2ccccc2)O[C@H](CO)[C@@H](O)[C@@H]1O[C@@H]1O[C@H](CO)[C@H](O)[C@H](O)[C@H]1O [Galβ1-3GlcNAcβProNHCbz]			much lower efficiencies	23.9 ± 0.3%	Yield (%) 15 min [4]: 0.9 ± 0.1%
O=[N+]([O-])c1ccc(O[C@@H]2O[C@H](CO)[C@H](O)[C@H](O)[C@H]2O)cc1 [GalβpNP, 4-nitrophenyl β-D-galactopyranoside]			trace activity	1.6 ± 0.1%	
CC(=O)N[C@H]1[C@@H](OCCCNC(=O)OCc2ccccc2)O[C@H](CO)[C@@H](O)[C@@H]1O [GlcNAcαProNHCbz]			much lower efficiencies	20.4 ± 0.1%	Yield (%) 15 min [4]: 0.5 ± 0.1%

Compound	CMP-Sia Yield (%) [2] [%]	Sialoside yield (%) 20 h [3]	Activity of His6-AbGtr18 towards acceptor (in words) [4]	Yield (%) 20 h [4]	also measured
CC(=O)N[C@H]1[C@H](OCCCNC(=O)OCc2ccccc2)O[C@H](CO)[C@@H](O)[C@@H]1O [GlcNAcβProNHCbz]			trace activity	1.0 ± 0.1%	
O=C(O)C1(O)C[C@H](O)[C@@H](O)[C@H]([C@H](O)[C@H](O)CO)O1 (some centres unmarked) [Kdn]	>99	9.6 ± 0.1%			Suitability as donor substrate for MBP-AbGtr18-His6 (in words) [3]: poor donor substrates
CC(=O)N[C@H]1[C@H](OCCCNC(=O)OCc2ccccc2)O[C@H](CO)[C@@H](O[C@@H]2O[C@H](CO)[C@H](O)[C@H](O)[C@H]2O)[C@@H]1O [LacNAcβProNHCbz]			limited activity	7.7 ± 0.1%	
O=C(NCCCO[C@@H]1O[C@H](CO)[C@@H](O[C@@H]2O[C@H](CO)[C@H](O)[C@H](O)[C@H]2O)[C@H](O)[C@H]1O)OCc1ccccc1 [LacβProNHCbz]			limited activity	13.8 ± 0.2%	
C[C@@H](O)[C@@H](N=[N+]=[N-])[C@@H]1OC(O)(C(=O)O)C[C@H](O)[C@H]1N=[N+]=[N-] (some centres unmarked) [Leg5,7diN3]	>99	68.4 ± 1.5%			Sialoside yield (%) 0.5 h [3]: 44.3 ± 1.6%; Suitability as donor substrate for MBP-AbGtr18-His6 (in words) [3]: suitable but less efficient donor substrates
CC(=O)NC[C@H]1OC(O)[C@@H](NC(C)=O)[C@@H](O)[C@@H]1NC(C)=O (some centres unmarked) [Man2,4,6triNAc]	24.1 ± 1.1	2.8 ± 0.1%			
CC(=O)N[C@H]1[C@H](O)[C@H](NC(C)=O)C(O)O[C@@H]1CO (some centres unmarked) [Man2,4diNAc]	51.5 ± 0.9	30.3 ± 0.3%			Sialoside yield (%) 0.5 h [3]: 5.5 ± 0.1%
[N-]=[N+]=NC1C(O)OC(CO)[C@@H](O)[C@@H]1O (some centres unmarked) [Man2N3]	57.6 ± 0.1	Trace			
CC(=O)N[C@@H]1C(O)O[C@H](CO)[C@@H](N=[N+]=[N-])[C@@H]1O (some centres unmarked) [ManNAc4N3]	84.4 ± 1.6	72.5 ± 0.1%			Sialoside yield (%) 0.5 h [3]: 50.6 ± 0.5%
CC(=O)N[C@@H]1C(O)O[C@H](CN=[N+]=[N-])[C@@H](O)[C@@H]1O (some centres unmarked) [ManNAc6N3]	>99	96.0 ± 2.1%			Sialoside yield (%) 0.5 h [3]: 55.5 ± 0.6%
CC(=O)N[C@H]1[C@@H](O)[C@H](O)[C@@H](CO)O[C@@H]1O [ManNAc]	>99	71.1 ± 0.4%			Sialoside yield (%) 0.5 h [3]: 37.6 ± 0.4%
[N-]=[N+]=NCC(=O)NC1C(O)OC(CO)C(O)C1O (centres unmarked) [ManNAz]	>99	98.4 ± 1.8%			Sialoside yield (%) 0.5 h [3]: 57.3 ± 0.4%
O=C(CO)N[C@@H]1C(O)O[C@H](CO)[C@@H](O)[C@@H]1O (some centres unmarked) [ManNGc]	>99	71.6 ± 2.5%			Sialoside yield (%) 0.5 h [3]: 13 ± 0.4%
O=C[C@@H](O)[C@@H](O)[C@H](O)[C@H](O)CO [Mannose]	77.7 ± 1.6	5.0 ± 0.3%			
[Cl-].[Cl-].[Mg+2] [Mg^2+, MgCl2]					Effect on the activity of AbGtr18 [1]: no significant effect; Effect of increasing Mg^2+ concentration on the activity of His6-AbGtr18 ([1]; up to 50 mM): decrease the activity
[Cl][Mn][Cl] [Mn^2+, MnCl2]					Effect on the activity of AbGtr18 [1]: almost abolished its activity completely
CC(=O)N[C@H]1[C@H]([C@@H](O)[C@@H](O)CO)O[C@@](O)(C(=O)O)C[C@@H]1O [Neu5Ac]	>99	93.3 ± 0.6%			Sialoside yield (%) 0.5 h [3]: 47.4 ± 1.7%; Suitability as donor substrate for MBP-AbGtr18-His6 (in words) [3]: efficient
[Cl-].[Cl-].[Zn+2] [Zn^2+, ZnCl2]					Effect on the activity of AbGtr18 [1]: almost abolished its activity completely
GalNAcα2AA			most reactive	78.1 ± 0.6%	Yield (%) 15 min [4]: 35.7 ± 2.2%
